Measured values reported in US8952169B2 (Genentech, Inc., priority 2012, dated 2015).
Read-outs that look alike come from different tables or passages of the source.

Target: hNav1.7 (Homo sapiens (Human), UniProt Q15858)
Experiment: Tritiated aryl sulfonamide binding to membranes from cells expressing hNav1.7 and the β1 subunit (competitive binding)
Conditions: read-out: NaV1.7 395 Memb Binding (IC50)
Description: Tritiated Aryl Sulfonamide Binding to Membranes Isolated from Cells that Heterologously Express hNav1.7 and the β1 Subunit
Preparation of membranes containing recombinantly expressed sodium channels: Frozen recombinant cell pellets were thawed on ice and diluted to 4 times the cell pellet weight with ice cold 50 mM Tris HCl, pH 7.4 buffer. The cell suspensions were homogenized on ice using a motorized glass dounce homogeniser. Homogenates were further diluted 8.4 times with ice cold 50 mM Tris HCl, pH 7.4 buffer and then centrifuged at 200×g at 4° C. for 15 min. The supernatants were collected and centrifuged at 10000×g at 4° C. for 50 min. The pellets were then re-suspended in 100 mM NaCl, 20 mM Tris HCl, pH 7.4 buffer containing 1% v/v protease inhibitors (Calbiochem) and re-homogenized on ice. The homogenized membranes were then processed through a syringe equipped with a 26 gauge needle. Protein concentrations were determined by Bradford Assay and the membranes were stored at −80° C.
Radioligand Binding Studies: Saturation experiments. A representative compound of formula (I) was tritiated. Three tritiums were incorporated in place of methyl hydrogens to generate [^3H]compound. Binding of this radioligand was preformed in 5 mL borosilicate glass test tubes at room temperature. Binding was initiated by adding membranes to increasing concentrations of [^3H]compound in 100 mM NaCl, 20 mM Tris HCl, pH 7.4 buffer containing 0.01% w/v bovine serum albumin (BSA) for 18 h. Non-specific binding was determined in the presence of 1 μM unlabelled compound. After 18 h, the reactants were filtered through GF/C glass fiber filters presoaked in 0.5% w/v polyethylene imine. […] [^3H]compound bound to filters was quantified by liquid scintillation counting.
Competitive binding experiments. Binding reactions were preformed in 96-well polypropylene plates at room temperature for 18 h. In 360 μL, membranes were incubated with 100 μM [^3H]compound and increasing concentrations of Test Compound. Non-specific binding was defined in the presence of 1 μM unlabelled compound. Reactions were transferred and filtered through 96-well glass fiber/C filter plates presoaked with 0.5% polyethylene imine. The filtered reactions were washed 5 times with 200 L ice cold buffer containing 0.25% BSA. Bound radioactivity was determined by liquid scintillation counting.
Data Analysis: For saturation experiments, non-specific binding was subtracted from total binding to provide specific binding and these values were recalculated in terms of pmol ligand bound per mg protein. Saturation curves were constructed and dissociation constants were calculated using the single site ligand binding model: Beq=(Bmax*X)/(X+Kd), where Beq is the amount of ligand bound at equilibrium, Bmax is the maximum receptor density, Kd is the dissociation constant for the ligand, and X is the free ligand concentration.

[1] = membranes with hNav1.7 and β1 subunit, [3H]compound displacement, 18 h, room temperature

Sequence of hNav1.7 (Q15858 whole entry, looked up): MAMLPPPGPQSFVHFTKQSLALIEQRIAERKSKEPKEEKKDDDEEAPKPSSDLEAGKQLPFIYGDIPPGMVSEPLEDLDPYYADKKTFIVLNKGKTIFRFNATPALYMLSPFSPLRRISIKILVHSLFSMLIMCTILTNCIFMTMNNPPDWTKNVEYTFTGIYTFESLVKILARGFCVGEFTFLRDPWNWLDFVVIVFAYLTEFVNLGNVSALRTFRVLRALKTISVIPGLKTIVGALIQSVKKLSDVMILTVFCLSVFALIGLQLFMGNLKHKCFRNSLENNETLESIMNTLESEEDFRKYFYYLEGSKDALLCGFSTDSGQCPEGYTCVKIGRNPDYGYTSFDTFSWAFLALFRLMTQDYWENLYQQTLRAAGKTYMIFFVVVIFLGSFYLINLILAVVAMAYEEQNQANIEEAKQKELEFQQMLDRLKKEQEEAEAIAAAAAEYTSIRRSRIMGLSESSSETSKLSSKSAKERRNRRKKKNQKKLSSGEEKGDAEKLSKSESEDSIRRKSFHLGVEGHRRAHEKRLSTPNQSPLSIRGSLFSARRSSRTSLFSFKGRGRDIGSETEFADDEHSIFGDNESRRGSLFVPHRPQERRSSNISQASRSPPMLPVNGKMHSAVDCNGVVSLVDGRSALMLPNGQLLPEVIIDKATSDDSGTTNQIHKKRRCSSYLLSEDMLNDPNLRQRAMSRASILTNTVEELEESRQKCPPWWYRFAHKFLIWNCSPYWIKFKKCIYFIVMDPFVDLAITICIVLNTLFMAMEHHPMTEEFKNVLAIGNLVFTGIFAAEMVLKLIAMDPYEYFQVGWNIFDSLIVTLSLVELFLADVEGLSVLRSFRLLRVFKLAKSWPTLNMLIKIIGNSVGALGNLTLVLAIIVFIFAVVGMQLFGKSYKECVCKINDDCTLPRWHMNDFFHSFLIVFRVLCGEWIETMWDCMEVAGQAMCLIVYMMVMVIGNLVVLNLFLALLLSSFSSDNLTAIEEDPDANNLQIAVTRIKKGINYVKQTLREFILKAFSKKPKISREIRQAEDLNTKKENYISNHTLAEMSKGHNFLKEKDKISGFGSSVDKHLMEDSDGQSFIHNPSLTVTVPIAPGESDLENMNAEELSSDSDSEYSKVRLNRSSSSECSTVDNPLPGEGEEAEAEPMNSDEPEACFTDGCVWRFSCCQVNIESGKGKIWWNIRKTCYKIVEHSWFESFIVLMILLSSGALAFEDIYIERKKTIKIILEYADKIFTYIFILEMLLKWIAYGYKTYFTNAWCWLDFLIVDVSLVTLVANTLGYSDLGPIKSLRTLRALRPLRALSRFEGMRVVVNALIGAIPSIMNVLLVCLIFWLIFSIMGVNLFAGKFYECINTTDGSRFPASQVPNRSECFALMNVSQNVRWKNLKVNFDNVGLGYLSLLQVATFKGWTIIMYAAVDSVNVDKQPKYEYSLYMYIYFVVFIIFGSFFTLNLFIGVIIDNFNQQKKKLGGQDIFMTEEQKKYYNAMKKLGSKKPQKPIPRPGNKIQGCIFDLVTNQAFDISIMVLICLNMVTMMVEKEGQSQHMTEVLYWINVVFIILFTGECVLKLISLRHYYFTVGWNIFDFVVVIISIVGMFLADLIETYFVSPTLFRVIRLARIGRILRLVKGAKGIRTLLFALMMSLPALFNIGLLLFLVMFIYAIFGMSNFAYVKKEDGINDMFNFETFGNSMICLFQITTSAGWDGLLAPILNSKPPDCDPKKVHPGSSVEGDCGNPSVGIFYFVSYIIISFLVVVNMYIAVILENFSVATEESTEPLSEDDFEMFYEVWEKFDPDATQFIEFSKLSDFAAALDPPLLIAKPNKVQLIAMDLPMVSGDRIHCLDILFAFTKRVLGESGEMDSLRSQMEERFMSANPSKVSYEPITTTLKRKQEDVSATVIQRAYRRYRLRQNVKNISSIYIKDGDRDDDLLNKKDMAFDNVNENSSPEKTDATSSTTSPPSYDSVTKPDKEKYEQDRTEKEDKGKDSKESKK
Sequence of hNav1.7 (Q07699 whole entry partner, looked up): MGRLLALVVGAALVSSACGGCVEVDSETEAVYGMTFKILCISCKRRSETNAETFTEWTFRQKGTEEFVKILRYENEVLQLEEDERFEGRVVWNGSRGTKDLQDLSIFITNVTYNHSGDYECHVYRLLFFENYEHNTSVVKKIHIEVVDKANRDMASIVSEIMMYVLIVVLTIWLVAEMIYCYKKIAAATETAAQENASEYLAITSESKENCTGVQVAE

Compound	IC50 [1]	IC50
CC(C)(C)OC(=O)N1CCCC(COc2cc(F)c(C(=O)NS(C)(=O)=O)cc2F)C1 (stereo not shown)	9990 nM	–
CS(=O)(=O)NC(=O)c1ccc(C(O)C2C3CC4CC(C3)CC2C4)c(Cl)c1 (stereo not shown)	–	1200 nM
CS(=O)(=O)NC(=O)c1cc(F)c(OCCC2CC2)cc1F	6860 nM	–
CS(=O)(=O)NC(=O)c1ccc(OCCC23CC4CC(CC(C4)C2)C3)c(Cl)c1	90 nM	–
CC1(COc2cc(F)c(C(=O)NS(=O)(=O)N3CCC3)cc2C2CC2)CCCCC1	3 nM	–
O=C(NS(=O)(=O)N1CCC1)c1cc(C2CC2)c(OCC23CC4CC(C2)CC(OC(=O)C(F)(F)F)(C4)C3)cc1F	35 nM	–
CC1(COc2cc(F)c(C(=O)NS(C)(=O)=O)cc2C2CC2)CCC(F)(F)CC1	18 nM	–
CC(C)(F)c1cc(C(=O)NS(=O)(=O)N2CCC2)c(F)cc1OCC12CC3CC(CC(C3)C1)C2	36 nM	–
O=C(NS(=O)(=O)C1CC1)c1cc(C2CC2)c(OCC2CC3CC3C2)cc1F (stereo not shown)	11 nM	–
O=C(NS(=O)(=O)N1CC2(CCO2)C1)c1cc(C2CC2)c(OCC23CC4CC(CC(C4)C2)C3)cc1F	40 nM	–
[2H]C1([2H])C([2H])([2H])C([2H])([2H])C([2H])(COc2cc(F)c(C(=O)NS(C)(=O)=O)cc2Cl)C([2H])([2H])C1([2H])[2H]	210 nM	–
CS(=O)(=O)NC(=O)c1cc(Cl)c(C(=O)NC23CC4CC(CC(C4)C2)C3)cc1F	10000 nM	–
CS(=O)(=O)NC(=O)c1cc(F)c(OCC2CCCNC2)cc1F (stereo not shown)	10000 nM	–
O=C(NS(=O)(=O)N1CCC1)c1cc(Cl)c(OCC2CC3C(C2)C3(F)F)cc1F (stereo not shown)	200 nM	–
CN(C)S(=O)(=O)NC(=O)c1cc(Cl)c(OC2C3CC4CC(C3)CC2C4)cc1F (stereo not shown)	190 nM	–
COC12CC3CC(CC(COc4cc(F)c(C(=O)NS(C)(=O)=O)cc4Cl)(C3)C1)C2	603 nM	–
CS(=O)(=O)NC(=O)c1cc(F)c(OCC2CCCO2)cc1F (stereo not shown)	–	10000 nM
CS(=O)(=O)NC(=O)c1cc(C2CC2)c(COC2C3CC4CC(C3)CC2C4)cc1F (stereo not shown)	5 nM	–
CS(=O)(=O)NC(=O)c1ccc(OCC23CC4CC(CC(C4)C2)C3)c(C2CCC2)c1	9 nM	–
O=C(NS(=O)(=O)CCO)c1cc(Cl)c(OCC23CC4CC(CC(C4)C2)C3)cc1F	130 nM	–
O=C(NS(=O)(=O)N1CCC1)c1cc(Cl)c(OCC23CC4CC(CC(C4)C2)C3)cc1F	21 nM	–

Compound	IC50 [1]	IC50
O=C(NS(=O)(=O)c1c[nH]cn1)c1cc(Cl)c(OCC23CC4CC(CC(C4)C2)C3)cc1F	190 nM	–
O=C(NS(=O)(=O)N1CCOCC1)c1cc(Cl)c(OCC23CC4CC(CC(C4)C2)C3)cc1F	55 nM	–
Cc1nnn(C23CC4CC(CC(COc5cc(F)c(C(=O)NS(C)(=O)=O)cc5Cl)(C4)C2)C3)n1	770 nM	–
CCCCCC12CCC(COc3cc(F)c(C(=O)NS(=O)(=O)N(C)C)cc3Cl)(CC1)CC2	33 nM	–
CN(C)S(=O)(=O)NC(=O)c1ccc(OCC23CC4CC(CC(C4)C2)C3)c(C2CC2)c1	16.2 nM	–
CS(=O)(=O)NC(=O)c1cc(Cl)c(OC[C@H]2CC[C@@H](C(F)(F)F)CC2)cc1F	86 nM	–
4-((1-((4-chlorophenyl)(phenyl)methyl)azetidin-3-yl)-methoxy)-5-cyclopropyl-2-fluoro-N-(methylsulfonyl)benzamide [Example 398]	–	6 nM
5-chloro-4-((4,4-difluorocyclohexyl)methoxy)-2-fluoro-N-(methylsulfonyl)benzamide [Example 42]	44 nM	–
5-chloro-N—(N,N-dimethylsulfamoyl)-2-fluoro-4-((4-pentylbicyclo[2.2.2]octan-1-yl)-methoxy)benzamide [Example 91]	1210 nM	–
5-cyclopropyl-4-((4,4-difluorocyclohexyl)methoxy)-2-fluoro-N-((3-fluoroazetidin-1-yl)sulfonyl)benzamide [Example 212]	2300 nM	–
5-cyclopropyl-4-((4,4-difluorocyclohexyl)methoxy)-2-fluoro-N-(N-methylsulfamoyl)benzamide [Example 214]	–	900 nM
COC(=O)C12CC3CC(C1)C(Oc1cc(F)c(C(=O)NS(C)(=O)=O)cc1Cl)C(C3)C2 (single isomer, unassigned) [Example 450]	1200 nM	–
COC(=O)C12CC3CC(C1)C(Oc1cc(F)c(C(=O)NS(C)(=O)=O)cc1Cl)C(C3)C2 (single isomer, unassigned) [Example 451]	270 nM	–
CS(=O)(=O)NC(=O)c1cc(Cl)c(OC2C3CC4CC(C3)CC2C4)cc1F (stereo not shown) [Example 9]	40 nM	–
CS(=O)(=O)NC(=O)c1cc(Cl)c(OCCC23CC4CC(CC(C4)C2)C3)cc1F [Example 11]	29 nM	–
CS(=O)(=O)NC(=O)c1ccc(CNC23CC4CC(CC(C4)C2)C3)c(Cl)c1 [Example 17]	10000 nM	–
CS(=O)(=O)NC(=O)c1ccc(OCC23CC4CC(CC(O)(C4)C2)C3)c(Cl)c1 [Example 24]	10000 nM	–
O=C(NS(=O)(=O)N1CCC1)c1ccc(OCC23CC4CC(CC(C4)C2)C3)c(C(F)(F)F)c1 [Example 53]	100 nM	–
COc1cc(OCC23CC4CC(CC(C4)C2)C3)c(Cl)cc1C(=O)NS(C)(=O)=O [Example 56]	480 nM	–
CS(=O)(=O)NC(=O)c1ccc(OCC23CC4CC(CC(C4)C2)C3)c(C(F)(F)F)c1 [Example 62]	58 nM	–

More lines, main results first:

IC50 [1]	Compound	IC50
190 nM	CS(=O)(=O)NC(=O)c1cc(Cl)c(Oc2ccc3c(c2)CCCC3)cc1F	–
20 nM	CNS(=O)(=O)NC(=O)c1cc(C2CC2)c(OCC2(C(F)(F)F)CCCCC2)cc1F	–
130 nM	CNS(=O)(=O)NC(=O)c1cc(C2CC2)c(OCC2CCC(F)(F)CC2)cc1F	–
10000 nM	CC1(C)C(COc2cc(F)c(C(=O)NS(C)(=O)=O)cc2Cl)C1(C)C [listing 1 of 2 here]	–
140 nM	CS(=O)(=O)NC(=O)c1cc(Cl)c(OCC2CCCCC2)cc1F	–
140 nM	CS(=O)(=O)NC(=O)c1cc(Cl)c(OCCC2CCCC2)cc1F	–
6 nM	CS(=O)(=O)NC(=O)c1cc(Cl)c(COC2C3CC4CC(C3)CC2C4)cc1F (stereo not shown)	–
58 nM	CC1(C)[C@@H]2CC[C@@H](COc3cc(F)c(C(=O)NS(C)(=O)=O)cc3Cl)[C@H]1C2	–
26 nM	CNS(=O)(=O)NC(=O)c1cc(Cl)c(COc2ccc3c(c2)CC(C)(C)CC3)cc1F	–
65 nM	CNS(=O)(=O)NC(=O)c1cc(Cl)c(COc2ccc3c(c2)CCC(C)(C)C3)cc1F	–
2.1 nM	CNS(=O)(=O)NC(=O)c1cc(C2CC2)c(OCC23CC4CC(CC(C4)C2)C3)cc1F	–
170 nM	CNS(=O)(=O)NC(=O)c1cc(Cl)c(COc2ccc3c(c2)CCC(C)(C)O3)cc1F	–
180 nM	CNS(=O)(=O)NC(=O)c1cc(Cl)c(COc2ccc3c(c2)OC(C)(C)CC3)cc1F	–
97 nM	CNS(=O)(=O)NC(=O)c1cc(Cl)c(OCC23CC4CC(CC(C4)C2)C3)cc1F	–
190 nM	CN(C)S(=O)(=O)NC(=O)c1cc(Cl)c(COc2ccc3c(c2)OC(C)(C)CC3)cc1F	–
86 nM	CN(C)S(=O)(=O)NC(=O)c1cc(Cl)c(COc2ccc3c(c2)CCC(C)(C)C3)cc1F	–
1680 nM	CN(C)S(=O)(=O)NC(=O)c1cc(Cl)c(OCC2(F)CCCCC2)cc1F	–
122 nM	CS(=O)(=O)NC(=O)c1cc(Cl)c(OCC2(C(F)(F)F)CCC2)cc1F	–
106 nM	CN(C)S(=O)(=O)NC(=O)c1cc(Cl)c(COc2ccc3c(c2)CC(C)(C)CC3)cc1F	–
16 nM	CS(=O)(=O)NC(=O)c1cc(Cl)c(COC23CC4CC(CC(C4)C2)C3)cc1F	–
81 nM	CN(C)S(=O)(=O)NC(=O)c1cc(Cl)c(OCC2CCC3(CCC3)CC2)cc1F	–
94 nM	CC1(C)C(COc2cc(F)c(C(=O)NS(C)(=O)=O)cc2Cl)C1(C)C [listing 2 of 2 here]	–
7100 nM	CNS(=O)(=O)NC(=O)c1cc(Cl)c(OC2C3CC4CC2CC(C(=O)OC)(C4)C3)cc1F (single isomer, unassigned) [Example 452]	–
950 nM	CNS(=O)(=O)NC(=O)c1cc(Cl)c(OC2C3CC4CC2CC(C(=O)OC)(C4)C3)cc1F (single isomer, unassigned) [Example 453]	–
29 nM	CS(=O)(=O)NC(=O)c1cc(Cl)c(OCC2CCC3(CC2)CC3)cc1F [Example 50]	–
121 nM	CN(C)S(=O)(=O)NC(=O)c1cc(Cl)c(OCC2CCC3(CC2)CC3)cc1F [Example 88, 5-chloro-N-(dimethylsulfamoyl)-2-fluoro-4-(spiro[2.5]octan-6-ylmethoxy)benzamide]	–
